This note sets out measurements from ChEMBL document CHEMBL1157675, “Anti-inflammatory diterpenes from the seeds of Vitex negundo” (Bioorg Med Chem, 2010).

Series [1] deals with RAW264.7. In words: Antiinflammatory activity in mouse RAW264.7 cells assessed as inhibition of LPS-induced NO production after 24 hrs by Griess reagent method. In kind it is functional, cell-based. Particulars: RAW264.7, 24 h.
Series [2] has as its system RAW264.7. In words: Cytotoxicity against mouse RAW264.7 cells up to 50 uM after 24 hrs by MTT assay. In kind it is cell-based. Conditions: raw264.7, 24 h. On the technique in general: Tetrazolium assays rely on reduction of a dye to a coloured formazan, in cell work by metabolically active cells.
Series [3] concerns RAW264.7. Nature of the series: Antiinflammatory activity in LPS-stimulated mouse RAW264.7 cells assessed as reduction of COX2 protein expression at 5 uM after 24 hrs by Western blot analysis relative to control. Conditions: for response, % of control at 5 µM: RAW264.7, 24 h, values are per cent of control. In kind it is functional. A general note: A western blot detects proteins with antibodies after separation by electrophoresis.

Series [4] concerns RAW264.7. In words: Antiinflammatory activity in LPS-stimulated mouse RAW264.7 cells assessed as reduction of iNOS protein expression at 5 uM after 24 hrs by Western blot analysis relative to control. Conditions: RAW264.7, 24 h, values are per cent of control. In kind it is functional.
The subject of series [5] is RAW264.7. In words: Antiinflammatory activity in LPS-stimulated mouse RAW264.7 cells assessed as reduction of COX2 protein expression at 50 uM after 24 hrs by Western blot analysis relative to control. In kind it is functional. Conditions: RAW264.7, 24 h.
Series [6] has as its system RAW264.7. Nature of the series: Antiinflammatory activity in LPS-stimulated mouse RAW264.7 cells assessed as reduction of iNOS protein expression at 50 uM after 24 hrs by Western blot analysis relative to control. In kind it is functional. Particulars: RAW264.7, 24 h.

Calls of active or inactive are those of the source. No cut-off for these calls is given here.

A word on the IC50: it is the concentration needed to halve the response being measured. For orientation: inhibition means the change of the read-out against control, counted positive when it falls. Consider `COC(=O)/C=C1\CC[C@@]2(O1)[C@H](C)CC[C@H]1C(C)(C)[C@@H](OC(C)=O)CC[C@@]12C` (relative stereo) [NEGUNDOIN A], for which the IC50 in the series with RAW264.7 [1] was determined as 9830 nM. Moreover, the Activity result with RAW264.7 [2] is “Non-toxic”. Further, the inhibition entry in the series on RAW264.7 [3] is “inactive”. The response, % of control at 5 µM in the series on RAW264.7 [4] was determined as 68.2%.

Turning to `CC(=O)O[C@H]1CC[C@@]2(C)[C@@H](CC[C@@H](C)[C@]23CC/C(=C\C(=O)O)O3)C1(C)C` (relative stereo) [NEGUNDOIN B], the IC50 with RAW264.7 [1] was found to be 23400 nM. For the same molecule, in the series on RAW264.7 [2], the Activity entry was “Non-toxic”.

Take `CC(=O)O[C@H]1CC[C@@]2(C)[C@@H](CC[C@@H](C)[C@]23CC/C(=C\C=O)O3)C1(C)C` (relative stereo) [NEGUNDOIN C]: the IC50 with RAW264.7 [1] turned out to be 120 nM. Also, the Activity entry with RAW264.7 [2] is “Non-toxic”. The response, % of control at 5 µM in the series with RAW264.7 [3] came to 2.06%; in the series with RAW264.7 [4] it was 0.4%.

Regarding `CO[C@H]1OC(=O)C[C@@]12CC[C@@]1(O2)[C@H](C)CC[C@H]2C(C)(C)[C@@H](OC(C)=O)CC[C@@]21C` (relative stereo) [NEGUNDOIN D], the IC50 in the series with RAW264.7 [1] was determined as 4390 nM. Besides, the Activity entry in the series on RAW264.7 [2] was “Non-toxic”. Further, the inhibition entry with RAW264.7 [3] is “inactive”. In addition, the response, % of control at 5 µM with RAW264.7 [4] turned out to be 62%.

In the case of `CC(=O)O[C@H]1CC[C@@]2(C)[C@@H](CC[C@@H](C)[C@]23CC[C@@]2(CCO[C@H]2O)O3)C1(C)C` (relative stereo) [NEGUNDOIN E], in the series on RAW264.7 [1], the IC50 came out at 230 nM. In addition, the Activity entry in the series with RAW264.7 [2] is recorded as “Non-toxic”. Further, the response, % of control at 5 µM in the series on RAW264.7 [3] was 26.4%; with RAW264.7 [4], 41%.

As to `CC(C)c1ccc(O)c(CC[C@@H]2[C@@H](C)CC[C@H](O)C2(C)C)c1` (relative stereo) [NEGUNDOIN F], the IC50 with RAW264.7 [1] was 1160 nM. Moreover, the Activity entry in the series on RAW264.7 [2] is “Non-toxic”. Besides, the response, % of control at 5 µM in the series with RAW264.7 [3] amounted to 59.7%; with RAW264.7 [4], 58.2%.

Take `C=C[C@@]1(C)CCC2C(=C[C@@H](O)[C@H]3C(C)(C)CCC[C@]23CO)C1=O` (relative stereo) [NEGUNDOIN G]: in the series on RAW264.7 [1], the IC50 is 700 nM. The Activity entry with RAW264.7 [2] is on record as “Non-toxic”.

Regarding `COc1ccc2c(c1)c(CC(=O)O)c(C)n2C(=O)c1ccc(Cl)cc1` [INDOMETHACIN], the half-maximal inhibitory concentration (IC50) with RAW264.7 [1] worked out at 45500 nM. Further, the values for the inhibition at 50 µM with RAW264.7 [5] and in the series with RAW264.7 [6] were 59.9% and 86.5%, respectively.
